Measured values taken from ChEMBL document CHEMBL5696443 (Clin Cancer Res, 2016).
Calls of active or inactive are those of the source. No cut-off for these calls is given here.

How the values were obtained:
[1] = molecular target: Serine/threonine-protein kinase pim-1 (Homo sapiens) (UniProt P11309); experiment: Inhibition of human PIM1 at 1 uM using RSRHSSYPAGT as substrate in presence of [gamma33P]-ATP by HotSpot assay relative to control
NCI-H3122 = settings: time 72 hrs
[2] = molecular target: Protein kinase C zeta type (Homo sapiens) (UniProt Q05513); experiment: Inhibition of human PRKCZ at 1 uM using ERMRPRKRQGSVRRRV as substrate in presence of [gamma33P]-ATP by HotSpot assay relative to control
[3] = molecular target: Mitogen-activated protein kinase 3 (Homo sapiens) (UniProt P27361); experiment: Inhibition of human MAPK3 at 1 uM using MBP as substrate in presence of [gamma33P]-ATP by HotSpot assay relative to control
[4] = molecular target: Tyrosine-protein kinase receptor TYRO3 (Homo sapiens) (UniProt Q06418); experiment: Inhibition of human TYRO3 at 1 uM using poly (Glu, Tyr)4:1 as substrate in presence of [gamma33P]-ATP by HotSpot assay relative to control
[5] = molecular target: Serine/threonine-protein kinase Nek7 (Homo sapiens) (UniProt Q8TDX7); experiment: Inhibition of human NEK7 at 1 uM using casein as substrate in presence of [gamma33P]-ATP by HotSpot assay relative to control
[6] = molecular target: Tyrosine-protein kinase ABL1 (Homo sapiens, UniProt P00519, T315I); experiment: Inhibition of human ABL1 T315I mutant using EAIYAAPFAKKK as substrate in presence of [gamma33P]-ATP by HotSpot assay
[7] = molecular target: Inhibitor of nuclear factor kappa-B kinase subunit beta (Homo sapiens) (UniProt O14920); experiment: Inhibition of human IKBKB at 1 uM using KKKKERLLDDRHDSGLDSMKDEE as substrate in presence of [gamma33P]-ATP by HotSpot assay relative to control
[8] = molecular target: Protein-tyrosine kinase 2-beta (Homo sapiens, UniProt Q14289); experiment: Inhibition of human PTK2B using poly (Glu, Tyr)4:1 as substrate in presence of [gamma33P]-ATP by HotSpot assay
[9] = system: EML4-ALK (Homo sapiens), Q9UM73+Q9HC35 [E1210K]; settings: BaF3, dose 200.0 nmol/L, time 3-5 weeks
[10] = molecular target: Dual specificity protein kinase CLK3 (Homo sapiens) (UniProt P49761); experiment: Inhibition of human CLK3 at 1 uM using MBP as substrate in presence of [gamma33P]-ATP by HotSpot assay relative to control
[11] = molecular target: Serine/threonine-protein kinase Nek11 (Homo sapiens) (UniProt Q8NG66); experiment: Inhibition of human NEK11 at 1 uM using MBP as substrate in presence of [gamma33P]-ATP by HotSpot assay relative to control
[12] = system: EML4-ALK (Homo sapiens), Q9UM73+Q9HC35 [S1206Y]; settings: BaF3, dose 500.0 nmol/L, time 3-5 weeks
[13] = molecular target: Serine/threonine-protein kinase Nek6 (Homo sapiens) (UniProt Q9HC98); experiment: Inhibition of human NEK6 at 1 uM using casein as substrate in presence of [gamma33P]-ATP by HotSpot assay relative to control
[14] = molecular target: Insulin-like growth factor 1 receptor (Homo sapiens, UniProt P08069); experiment: Inhibition of human IGF1R using KKKSPGEYVNIEFG as substrate in presence of [gamma33P]-ATP by HotSpot assay
Focal adhesion kinase 1 = Focal adhesion kinase 1 (Homo sapiens, UniProt Q05397); experiment: Inhibition of human FAK using poly (Glu, Tyr)4:1 as substrate in presence of [gamma33P]-ATP by HotSpot assay
[15] = molecular target: Serine/threonine-protein kinase Nek2 (Homo sapiens) (UniProt P51955); experiment: Inhibition of human NEK2 at 1 uM using MBP substrate in presence of [gamma33P]-ATP by HotSpot assay relative to control
[16] = molecular target: PAS domain-containing serine/threonine-protein kinase (Homo sapiens) (UniProt Q96RG2); experiment: Inhibition of human PASK at 1 uM using KKLNRTLSFAEPG as substrate in presence of [gamma33P]-ATP by HotSpot assay relative to control
Mus musculus = experiment: In vivo inhibition of ALK signaling in SCID Beige mouse xenografted with ALK positive human KARPAS-299 cells assessed as reduction in phosphorylated ERK1/2 level at 10 to 50 mg/kg, po administered as single dose and measured at 6 to 24 hrs by immunoblot analysis; type: functional, organism-based; settings: dose 10-50 mg/kg, time 6-24 hrs
[17] = molecular target: RAC-alpha serine/threonine-protein kinase (Homo sapiens) (UniProt P31749); experiment: Inhibition of human AKT1 at 1 uM using KGSGSGRPRTSSFAEG as substrate in presence of [gamma33P]-ATP by HotSpot assay relative to control
[18] = molecular target: Mitogen-activated protein kinase 10 (Homo sapiens) (UniProt P53779); experiment: Inhibition of human MAPK10 at 1 uM using ATF2 as substrate in presence of [gamma33P]-ATP by HotSpot assay relative to control
[19] = molecular target: Dual specificity protein kinase CLK2 (Homo sapiens, UniProt P49760); experiment: Inhibition of human CLK2 using MBP as substrate in presence of [gamma33P]-ATP by HotSpot assay
BaF3 = experiment: Antitumor activity against mouse BaF3 cells expressing EML4-ALK L1196M mutant implanted in mouse assessed as tumor regression at 50 mg/kg, po administered once daily and measured after 8 days relative to control; type: functional; settings: time 8 day
[20] = system: EML4-ALK (Homo sapiens), Q9UM73+Q9HC35 [G1269A]; settings: BaF3, time 3-5 weeks
[21] = system: EML4-ALK (Homo sapiens), Q9UM73+Q9HC35 [D1203N]; settings: BaF3, dose 500.0 nmol/L, time 3-5 weeks
NCI-H838 = settings: time 72 hrs
Homo sapiens = species on record: Homo sapiens; experiment: Inhibition of human PKA at 1 uM using LCGRTGRRNSI as substrate in presence of [gamma33P]-ATP by HotSpot assay relative to control
[22] = molecular target: Serine/threonine-protein kinase PLK3 (Homo sapiens) (UniProt Q9H4B4); experiment: Inhibition of human PLK3 at 1 uM using casein as substrate in presence of [gamma33P]-ATP by HotSpot assay relative to control
[23] = system: EML4-ALK (Homo sapiens), Q9UM73+Q9HC35 [L1152P]; settings: BaF3, time 3-5 weeks
[24] = molecular target: Ephrin type-A receptor 8 (Homo sapiens) (UniProt P29322); experiment: Inhibition of human EPHA8 at 1 uM using poly (Glu, Tyr)4:1 as substrate in presence of [gamma33P]-ATP by HotSpot assay relative to control

Sequence of Serine/threonine-protein kinase PLK3 (Homo sapiens) (Q9H4B4 whole entry, looked up): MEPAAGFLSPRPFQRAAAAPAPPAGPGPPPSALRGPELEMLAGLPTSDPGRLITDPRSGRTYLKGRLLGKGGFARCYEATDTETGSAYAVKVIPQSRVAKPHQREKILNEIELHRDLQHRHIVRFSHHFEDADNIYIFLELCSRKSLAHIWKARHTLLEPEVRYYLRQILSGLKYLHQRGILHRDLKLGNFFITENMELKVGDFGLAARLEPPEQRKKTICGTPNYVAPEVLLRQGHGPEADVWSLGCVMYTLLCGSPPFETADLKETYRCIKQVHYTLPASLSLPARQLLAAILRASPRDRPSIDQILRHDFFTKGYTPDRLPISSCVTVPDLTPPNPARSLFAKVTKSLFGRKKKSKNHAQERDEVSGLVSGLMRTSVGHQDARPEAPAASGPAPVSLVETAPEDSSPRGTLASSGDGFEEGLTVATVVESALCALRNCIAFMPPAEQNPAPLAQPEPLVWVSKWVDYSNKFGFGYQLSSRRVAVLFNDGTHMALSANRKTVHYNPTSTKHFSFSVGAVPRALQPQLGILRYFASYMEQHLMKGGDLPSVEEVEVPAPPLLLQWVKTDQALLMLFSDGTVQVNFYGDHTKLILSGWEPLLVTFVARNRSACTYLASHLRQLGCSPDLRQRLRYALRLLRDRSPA
Sequence of Serine/threonine-protein kinase Nek11 (Homo sapiens) (Q8NG66 whole entry): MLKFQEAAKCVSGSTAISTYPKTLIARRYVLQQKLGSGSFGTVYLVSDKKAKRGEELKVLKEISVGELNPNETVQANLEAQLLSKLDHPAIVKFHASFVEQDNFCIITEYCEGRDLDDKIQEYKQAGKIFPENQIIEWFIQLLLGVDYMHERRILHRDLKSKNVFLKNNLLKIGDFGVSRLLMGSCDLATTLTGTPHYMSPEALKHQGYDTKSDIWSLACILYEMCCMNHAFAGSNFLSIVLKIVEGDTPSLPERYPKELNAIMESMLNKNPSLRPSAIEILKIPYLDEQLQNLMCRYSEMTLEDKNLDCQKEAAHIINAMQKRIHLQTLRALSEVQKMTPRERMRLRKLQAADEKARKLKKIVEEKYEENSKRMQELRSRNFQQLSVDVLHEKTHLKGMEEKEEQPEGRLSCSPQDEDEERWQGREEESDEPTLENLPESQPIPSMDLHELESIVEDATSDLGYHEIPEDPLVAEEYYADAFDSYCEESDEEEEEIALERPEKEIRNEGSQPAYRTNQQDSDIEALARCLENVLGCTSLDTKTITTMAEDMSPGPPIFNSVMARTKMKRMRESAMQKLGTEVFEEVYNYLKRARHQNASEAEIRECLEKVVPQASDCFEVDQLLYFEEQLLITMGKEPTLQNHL
Sequence of Tyrosine-protein kinase receptor TYRO3 (Homo sapiens) (Q06418 whole entry): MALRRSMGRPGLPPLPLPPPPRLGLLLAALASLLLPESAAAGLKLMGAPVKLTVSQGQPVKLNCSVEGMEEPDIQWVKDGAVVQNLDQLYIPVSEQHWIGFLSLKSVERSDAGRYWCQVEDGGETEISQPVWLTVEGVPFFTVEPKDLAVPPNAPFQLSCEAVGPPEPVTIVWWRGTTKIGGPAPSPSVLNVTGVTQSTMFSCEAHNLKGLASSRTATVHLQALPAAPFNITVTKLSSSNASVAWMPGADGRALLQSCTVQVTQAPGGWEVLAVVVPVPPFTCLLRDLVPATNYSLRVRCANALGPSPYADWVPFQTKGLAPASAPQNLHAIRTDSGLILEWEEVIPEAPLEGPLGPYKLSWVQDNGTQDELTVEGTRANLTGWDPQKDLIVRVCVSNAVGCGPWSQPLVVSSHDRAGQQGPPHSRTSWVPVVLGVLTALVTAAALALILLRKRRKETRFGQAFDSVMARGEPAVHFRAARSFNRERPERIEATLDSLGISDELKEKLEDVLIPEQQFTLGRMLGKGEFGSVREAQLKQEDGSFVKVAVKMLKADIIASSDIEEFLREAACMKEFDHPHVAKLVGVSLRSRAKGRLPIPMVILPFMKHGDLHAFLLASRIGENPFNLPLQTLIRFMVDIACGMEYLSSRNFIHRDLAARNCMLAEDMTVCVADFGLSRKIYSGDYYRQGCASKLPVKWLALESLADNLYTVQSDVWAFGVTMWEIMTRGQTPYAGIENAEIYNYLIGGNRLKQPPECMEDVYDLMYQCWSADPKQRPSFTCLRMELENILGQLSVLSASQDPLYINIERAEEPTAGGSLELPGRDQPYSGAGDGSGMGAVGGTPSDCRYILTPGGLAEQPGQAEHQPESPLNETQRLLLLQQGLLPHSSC
Sequence of Protein-tyrosine kinase 2-beta (Q14289 whole entry): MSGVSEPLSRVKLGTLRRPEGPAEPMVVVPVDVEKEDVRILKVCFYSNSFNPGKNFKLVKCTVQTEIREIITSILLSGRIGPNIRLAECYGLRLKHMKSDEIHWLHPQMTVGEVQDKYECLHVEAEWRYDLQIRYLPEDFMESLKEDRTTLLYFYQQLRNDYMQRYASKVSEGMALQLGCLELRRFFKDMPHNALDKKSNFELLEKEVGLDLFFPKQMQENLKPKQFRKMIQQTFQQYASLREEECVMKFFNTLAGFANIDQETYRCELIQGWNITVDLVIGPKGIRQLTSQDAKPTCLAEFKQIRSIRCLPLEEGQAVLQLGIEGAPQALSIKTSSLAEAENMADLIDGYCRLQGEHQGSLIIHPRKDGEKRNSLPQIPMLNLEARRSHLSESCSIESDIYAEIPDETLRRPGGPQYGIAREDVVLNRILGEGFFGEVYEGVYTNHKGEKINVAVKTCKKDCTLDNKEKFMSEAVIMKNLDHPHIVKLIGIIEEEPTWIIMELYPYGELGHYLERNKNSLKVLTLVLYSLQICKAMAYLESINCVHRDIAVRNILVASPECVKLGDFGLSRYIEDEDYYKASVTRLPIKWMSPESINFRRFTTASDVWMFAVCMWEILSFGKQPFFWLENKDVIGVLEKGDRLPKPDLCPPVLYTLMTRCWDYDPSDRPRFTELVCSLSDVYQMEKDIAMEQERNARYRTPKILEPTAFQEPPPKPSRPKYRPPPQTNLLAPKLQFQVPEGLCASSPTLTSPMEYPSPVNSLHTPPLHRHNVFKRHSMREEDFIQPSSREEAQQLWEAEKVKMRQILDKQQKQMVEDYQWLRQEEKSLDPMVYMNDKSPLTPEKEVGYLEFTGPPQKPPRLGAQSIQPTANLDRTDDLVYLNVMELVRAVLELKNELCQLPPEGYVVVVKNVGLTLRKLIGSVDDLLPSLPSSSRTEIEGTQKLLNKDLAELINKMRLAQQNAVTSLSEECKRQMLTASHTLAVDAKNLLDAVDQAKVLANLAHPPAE
Sequence of PAS domain-containing serine/threonine-protein kinase (Homo sapiens) (Q96RG2 whole entry, the tested form may be a part): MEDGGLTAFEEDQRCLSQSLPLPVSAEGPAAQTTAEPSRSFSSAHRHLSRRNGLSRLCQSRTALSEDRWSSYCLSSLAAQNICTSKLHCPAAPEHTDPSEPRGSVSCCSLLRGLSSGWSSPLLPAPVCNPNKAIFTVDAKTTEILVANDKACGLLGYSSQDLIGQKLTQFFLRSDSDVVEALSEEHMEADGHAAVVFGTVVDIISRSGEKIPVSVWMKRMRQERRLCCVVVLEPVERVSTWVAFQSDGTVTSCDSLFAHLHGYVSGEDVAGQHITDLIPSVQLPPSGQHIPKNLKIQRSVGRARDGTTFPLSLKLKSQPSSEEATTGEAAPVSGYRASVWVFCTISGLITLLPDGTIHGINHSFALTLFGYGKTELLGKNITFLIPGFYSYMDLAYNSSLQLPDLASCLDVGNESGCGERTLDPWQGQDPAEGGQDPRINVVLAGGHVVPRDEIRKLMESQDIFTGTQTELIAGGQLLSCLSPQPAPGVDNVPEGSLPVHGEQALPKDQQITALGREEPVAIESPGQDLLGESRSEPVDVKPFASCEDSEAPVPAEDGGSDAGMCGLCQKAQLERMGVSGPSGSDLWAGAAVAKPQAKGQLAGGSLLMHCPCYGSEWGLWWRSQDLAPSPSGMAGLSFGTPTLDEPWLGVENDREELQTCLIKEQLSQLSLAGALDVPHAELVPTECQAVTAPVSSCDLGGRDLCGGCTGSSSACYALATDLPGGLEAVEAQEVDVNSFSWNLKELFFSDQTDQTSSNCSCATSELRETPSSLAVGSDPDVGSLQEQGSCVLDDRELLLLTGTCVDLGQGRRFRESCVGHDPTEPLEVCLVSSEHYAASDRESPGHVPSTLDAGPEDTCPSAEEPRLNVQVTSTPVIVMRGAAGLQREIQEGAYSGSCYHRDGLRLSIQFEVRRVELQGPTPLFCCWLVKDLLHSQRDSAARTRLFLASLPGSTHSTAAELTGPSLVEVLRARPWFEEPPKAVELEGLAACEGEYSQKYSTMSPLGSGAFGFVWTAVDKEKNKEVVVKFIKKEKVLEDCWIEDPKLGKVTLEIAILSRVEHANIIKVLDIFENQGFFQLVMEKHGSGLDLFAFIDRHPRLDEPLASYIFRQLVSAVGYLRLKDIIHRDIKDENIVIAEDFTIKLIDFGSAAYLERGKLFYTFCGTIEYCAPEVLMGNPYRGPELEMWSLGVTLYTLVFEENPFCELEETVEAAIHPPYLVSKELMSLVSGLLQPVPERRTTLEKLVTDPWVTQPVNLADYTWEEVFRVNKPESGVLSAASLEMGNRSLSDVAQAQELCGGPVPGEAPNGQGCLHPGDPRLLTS
Sequence of Serine/threonine-protein kinase Nek6 (Homo sapiens) (Q9HC98 whole entry): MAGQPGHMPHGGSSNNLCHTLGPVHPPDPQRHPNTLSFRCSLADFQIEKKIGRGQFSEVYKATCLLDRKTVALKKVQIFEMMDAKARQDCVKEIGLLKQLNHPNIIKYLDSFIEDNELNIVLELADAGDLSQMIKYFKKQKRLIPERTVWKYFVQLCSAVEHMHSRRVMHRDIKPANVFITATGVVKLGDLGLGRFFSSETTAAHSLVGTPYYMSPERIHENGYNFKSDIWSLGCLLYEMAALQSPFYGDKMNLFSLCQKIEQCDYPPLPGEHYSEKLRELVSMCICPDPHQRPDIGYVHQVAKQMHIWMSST

For `COc1cc(N2CCC(N3CCN(C)CC3)CC2)ccc1Nc1ncc(Cl)c(Nc2ccccc2P(C)(C)=O)n1` [BRIGATINIB], the inhibition [1] was < 90%, the GI50 (NCI-H3122) was 4 nM and the inhibition [2] was < 90%. The inhibition [3] was < 90%, the inhibition [4] was < 90% and the inhibition [5] was < 90%. For the same molecule, the IC50 [6] was 242 nM, the inhibition [7] was < 90% and the IC50 [8] was 24 nM. For the same molecule, the inhibition [9] was “inactive”, the inhibition [10] was < 90% and the inhibition [11] was < 90%. For the same molecule, the inhibition [12] was “Active”, the inhibition [13] was < 90% and the IC50 [14] was 73 nM. The IC50 (Focal adhesion kinase 1) was 3.9 nM, the inhibition [15] was < 90% and the inhibition [16] was < 90%. The Activity (Mus musculus) was “Active”, the inhibition [17] was < 90% and the inhibition [18] was < 90%. The IC50 [19] was 240 nM, the Activity (BaF3) was 67% and the IC90 [20] was 22 nM. The inhibition [21] was “Active”, the GI50 (NCI-H838) was 503 nM and the inhibition (Homo sapiens) was < 90%. For the same molecule, the inhibition [22] was < 90%, the IC90 [23] was 94 nM and the inhibition [24] was < 90%.
